Source: patent publication US20240245682A1, “ALPHA-V-BETA-8 INTEGRIN INHIBITORS AND USES THEREOF” (Pliant Therapeutics, Inc., priority 2022, published 2024)
pIC50: −log10 of the molar value.

Key:
Experiment in all cases: AlphaScreen proximity-based integrin binding assay with TGF-b1 LAP
Settings in all cases: values given as ranges
[1] = target: human integrin αVβ6 (Homo sapiens, UniProt P06756+P18564)
Outline: (§1)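 Purified human integrin incubated with compound, TGF-b1 LAP, biotinylated anti-LAP antibody and acceptor beads for 2 h, then streptavidin donor beads 30 min, room temperature, in 50 mM Tris-HCl pH 7.5, 0.1% BSA, 1 mM CaCl2/MgCl2. AlphaScreen signal (680 nm excitation, 520-620 nm emission); IC50 by four-parameter fit.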

[2] = target: human integrin αVβ8 (Homo sapiens, UniProt P06756+P26012)
human integrin αVβ8, sequence (P06756 31-992 limits assumed): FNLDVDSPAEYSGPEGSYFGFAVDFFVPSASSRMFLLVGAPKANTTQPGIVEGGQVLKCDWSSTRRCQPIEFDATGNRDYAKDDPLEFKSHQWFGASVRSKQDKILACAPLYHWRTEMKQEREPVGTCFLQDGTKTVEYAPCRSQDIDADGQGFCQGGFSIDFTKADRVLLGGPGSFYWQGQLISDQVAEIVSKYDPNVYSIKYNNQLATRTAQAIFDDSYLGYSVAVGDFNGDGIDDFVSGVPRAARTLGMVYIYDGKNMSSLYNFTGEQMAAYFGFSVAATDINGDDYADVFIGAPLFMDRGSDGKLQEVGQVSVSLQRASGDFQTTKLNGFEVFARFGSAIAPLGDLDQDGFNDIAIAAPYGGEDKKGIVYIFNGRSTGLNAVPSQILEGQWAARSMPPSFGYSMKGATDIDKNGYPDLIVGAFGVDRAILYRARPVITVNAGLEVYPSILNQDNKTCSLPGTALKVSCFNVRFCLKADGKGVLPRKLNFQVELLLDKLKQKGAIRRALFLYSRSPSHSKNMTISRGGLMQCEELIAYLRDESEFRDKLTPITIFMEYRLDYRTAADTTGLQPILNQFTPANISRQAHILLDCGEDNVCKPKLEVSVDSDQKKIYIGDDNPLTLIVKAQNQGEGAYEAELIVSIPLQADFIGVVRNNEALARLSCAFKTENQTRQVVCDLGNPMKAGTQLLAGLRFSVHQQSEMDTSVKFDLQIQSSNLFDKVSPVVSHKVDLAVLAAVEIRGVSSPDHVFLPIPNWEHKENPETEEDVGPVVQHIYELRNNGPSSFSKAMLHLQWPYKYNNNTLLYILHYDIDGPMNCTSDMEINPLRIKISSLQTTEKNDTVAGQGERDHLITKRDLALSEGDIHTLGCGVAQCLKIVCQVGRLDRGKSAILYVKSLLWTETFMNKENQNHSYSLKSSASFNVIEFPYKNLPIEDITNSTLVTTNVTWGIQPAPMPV
human integrin αVβ8, sequence (P26012 43-684 limits assumed): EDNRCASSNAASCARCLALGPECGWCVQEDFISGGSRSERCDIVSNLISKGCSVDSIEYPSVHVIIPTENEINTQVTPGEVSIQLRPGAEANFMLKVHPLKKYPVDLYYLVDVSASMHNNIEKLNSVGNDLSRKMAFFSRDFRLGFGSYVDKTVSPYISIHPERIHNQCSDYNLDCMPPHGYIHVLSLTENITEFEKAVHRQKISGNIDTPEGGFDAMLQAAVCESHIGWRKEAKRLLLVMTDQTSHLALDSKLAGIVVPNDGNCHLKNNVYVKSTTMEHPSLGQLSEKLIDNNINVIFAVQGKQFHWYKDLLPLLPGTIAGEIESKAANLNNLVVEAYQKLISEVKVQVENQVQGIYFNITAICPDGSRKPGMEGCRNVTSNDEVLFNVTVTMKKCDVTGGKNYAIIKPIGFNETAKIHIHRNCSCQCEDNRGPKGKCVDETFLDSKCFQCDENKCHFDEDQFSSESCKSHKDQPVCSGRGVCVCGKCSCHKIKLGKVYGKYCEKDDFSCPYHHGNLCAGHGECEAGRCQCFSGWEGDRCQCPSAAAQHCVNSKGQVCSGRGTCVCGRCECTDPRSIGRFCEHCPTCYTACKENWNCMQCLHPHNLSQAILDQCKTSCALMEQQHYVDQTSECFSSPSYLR
Outline: as §1

[3] = target: human integrin αVβ1 (Homo sapiens, UniProt P05556+P06756)
human integrin αVβ1, sequence (P06756 31-992 limits assumed): as the sequence (P06756 31-992 limits assumed) above
human integrin αVβ1, sequence (P05556 21-728 limits assumed): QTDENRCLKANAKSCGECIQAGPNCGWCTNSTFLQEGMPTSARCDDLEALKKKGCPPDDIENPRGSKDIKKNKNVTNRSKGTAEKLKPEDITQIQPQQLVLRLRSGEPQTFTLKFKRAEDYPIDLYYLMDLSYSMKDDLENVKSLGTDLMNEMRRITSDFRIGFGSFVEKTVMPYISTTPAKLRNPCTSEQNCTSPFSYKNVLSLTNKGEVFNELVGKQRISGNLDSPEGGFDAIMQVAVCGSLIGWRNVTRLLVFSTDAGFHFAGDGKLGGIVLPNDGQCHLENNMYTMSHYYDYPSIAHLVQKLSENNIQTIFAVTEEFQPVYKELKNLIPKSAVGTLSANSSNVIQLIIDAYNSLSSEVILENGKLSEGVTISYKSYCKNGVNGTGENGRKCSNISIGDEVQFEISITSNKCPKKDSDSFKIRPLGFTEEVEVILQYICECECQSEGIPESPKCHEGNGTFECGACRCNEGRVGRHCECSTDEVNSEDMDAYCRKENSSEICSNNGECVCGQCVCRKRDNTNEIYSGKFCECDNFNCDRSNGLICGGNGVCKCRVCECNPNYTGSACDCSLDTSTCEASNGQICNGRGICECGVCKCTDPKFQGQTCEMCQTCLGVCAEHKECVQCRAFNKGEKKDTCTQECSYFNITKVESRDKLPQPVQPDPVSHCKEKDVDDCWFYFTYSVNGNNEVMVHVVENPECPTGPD
Outline: as §1

human integrin αVβ6, sequence (P06756 31-992 limits assumed): as the sequence (P06756 31-992 limits assumed) above
human integrin αVβ6, sequence (P18564 22-707 limits assumed): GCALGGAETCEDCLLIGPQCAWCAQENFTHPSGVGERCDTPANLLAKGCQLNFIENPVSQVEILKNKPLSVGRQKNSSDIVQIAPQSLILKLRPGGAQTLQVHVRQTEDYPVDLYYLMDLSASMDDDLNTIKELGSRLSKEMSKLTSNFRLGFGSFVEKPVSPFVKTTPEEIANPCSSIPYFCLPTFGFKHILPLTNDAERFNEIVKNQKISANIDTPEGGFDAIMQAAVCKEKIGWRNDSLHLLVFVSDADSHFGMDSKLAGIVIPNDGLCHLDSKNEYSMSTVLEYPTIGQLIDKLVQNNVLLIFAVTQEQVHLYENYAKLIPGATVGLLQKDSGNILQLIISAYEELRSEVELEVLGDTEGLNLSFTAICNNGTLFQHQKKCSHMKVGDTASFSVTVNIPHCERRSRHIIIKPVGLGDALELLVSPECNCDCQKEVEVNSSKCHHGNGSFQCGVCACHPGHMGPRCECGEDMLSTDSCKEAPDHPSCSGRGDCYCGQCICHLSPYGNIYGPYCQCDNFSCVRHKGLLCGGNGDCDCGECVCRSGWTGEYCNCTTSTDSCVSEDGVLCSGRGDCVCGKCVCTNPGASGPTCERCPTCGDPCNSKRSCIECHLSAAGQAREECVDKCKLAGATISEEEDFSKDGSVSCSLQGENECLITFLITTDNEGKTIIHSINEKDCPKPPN

Row | pIC50 [1] | pIC50 [2] | pIC50 [3] | Compound
1 | ≤ 6.30 | 6.82 to 7.30 | > 7.30 | CC(C)(C(=O)NC(CCOCCCCc1ccc2c(n1)NCCC2)C(=O)O)c1ccccc1 (stereo not drawn) [Compound 1, N-(2-methyl-2-phenylpropanoyl)-O-(4-(5,6,7,8-tetrahydro-1,8-naphthyridin-2-yl)butyl)homoserine]
2 | ≤ 6.30 | > 7.30 | > 7.30 | N#Cc1c[nH]nc1C1(C(=O)N[C@@H](CCOCCCCc2ccc3c(n2)NCCC3)C(=O)O)CC1 [Compound 78, N-(1-(4-cyano-1H-pyrazol-3-yl)cyclopropane-1-carbonyl)-O-(4-(5,6,7,8-tetrahydro-1,8-naphthyridin-2-yl)butyl)-L-homoserine]
3 | ≤ 6.30 | 6.82 to 7.30 | 6.82 to 7.30 | COCc1cccnc1C1(C(=O)N[C@@H](CCOCCCCc2ccc3c(n2)NCCC3)C(=O)O)CC1 [Compound 53, N-(1-(3-(methoxymethyl)pyridin-2-yl)cyclopropane-1-carbonyl)-O-(4-(5,6,7,8-tetrahydro-1,8-naphthyridin-2-yl)butyl)-L-homoserine]
4 | ≤ 6.30 | > 7.30 | > 7.30 | Cc1ncccc1C1(C(=O)N[C@@H](CCOCCCCc2ccc3c(n2)NCCC3)C(=O)O)CC1 [Compound 13, N-(1-(2-methylpyridin-3-yl)cyclopropane-1-carbonyl)-O-(4-(5,6,7,8-tetrahydro-1,8-naphthyridin-2-yl)butyl)-L-homoserine]
5 | ≤ 6.30 | > 7.30 | > 7.30 | O=C(O)[C@H](CCOCCCCc1ccc2c(n1)NCCC2)NC(=O)C1(c2c(Cl)cccc2Cl)CC1 [Compound 7, N-(1-(2,6-dichlorophenyl)cyclopropane-1-carbonyl)-O-(4-(5,6,7,8-tetrahydro-1,8-naphthyridin-2-yl)butyl)-L-homoserine]
6 | ≤ 6.30 | > 7.30 | > 7.30 | N#Cc1cccnc1C1(C(=O)N[C@@H](CCOCCCCc2ccc3c(n2)NCCC3)C(=O)O)CC1 [Compound 32, N-(1-(3-cyanopyridin-2-yl)cyclopropane-1-carbonyl)-O-(4-(5,6,7,8-tetrahydro-1,8-naphthyridin-2-yl)butyl)-L-homoserine]
7 | < 6.30 | > 7.30 | > 7.30 | Cc1ncnc(Cl)c1C1(C(=O)NC(CCOCCCCc2ccc3c(n2)NCCC3)C(=O)O)CC1 (stereo not drawn) [Compound 101, N-(1-(4-chloro-6-methylpyrimidin-5-yl)cyclopropane-1-carbonyl)-O-(4-(5,6,7,8-tetrahydro-1,8-naphthyridin-2-yl)butyl)homoserine]
8 | < 6.30 | 6.82 to 7.30 | > 7.30 | O=C(O)[C@H](CCOCCCCc1ccc2c(n1)NCCC2)NC(=O)C1(c2ccc(F)cc2)CCOCC1 [Compound 85, N-(4-(4-fluorophenyl)tetrahydro-2H-pyran-4-carbonyl)-O-(4-(5,6,7,8-tetrahydro-1,8-naphthyridin-2-yl)butyl)-L-homoserine]
9 | ≤ 6.30 | ≤ 6.30 | 6.30 to 6.60 | Cc1cccc(C2(C(=O)N[C@@H](CCOCCCCc3ccc4c(n3)NCCC4)C(=O)O)CC2)n1 [Compound 20, N-(1-(6-methylpyridin-2-yl)cyclopropane-1-carbonyl)-O-(4-(5,6,7,8-tetrahydro-1,8-naphthyridin-2-yl)butyl)-L-homoserine]
10 | ≤ 6.30 | > 7.30 | 6.82 to 7.30 | COc1cccc(C2(C(=O)N[C@@H](CCOCCCCc3ccc4c(n3)NCCC4)C(=O)O)CC2)n1 [Compound 18, N-(1-(6-methoxypyridin-2-yl)cyclopropane-1-carbonyl)-O-(4-(5,6,7,8-tetrahydro-1,8-naphthyridin-2-yl)butyl)-L-homoserine]
11 | 6.60 to 6.82 | > 7.30 | > 7.30 | O=C(O)[C@H](CCOCCCCc1ccc2c(n1)NCCC2)NC(=O)C1(c2cc(F)cnc2F)CC1 [Compound 21, N-(1-(2,5-difluoropyridin-3-yl)cyclopropane-1-carbonyl)-O-(4-(5,6,7,8-tetrahydro-1,8-naphthyridin-2-yl)butyl)-L-homoserine]
12 | ≤ 6.30 | > 7.30 | > 7.30 | COc1ncnc(C)c1C1(C(=O)N[C@@H](CCOCCCCc2ccc3c(n2)NCCC3)C(=O)O)CC1 [Compound 61, N-(1-(4-methoxy-6-methylpyrimidin-5-yl)cyclopropane-1-carbonyl)-O-(4-(5,6,7,8-tetrahydro-1,8-naphthyridin-2-yl)butyl)-L-homoserine]
13 | ≤ 6.30 | > 7.30 | > 7.30 | Cc1ncc(Cl)c(C2(C(=O)N[C@@H](CCOCCCCc3ccc4c(n3)NCCC4)C(=O)O)CC2)n1 [Compound 73, N-(1-(5-chloro-2-methylpyrimidin-4-yl)cyclopropane-1-carbonyl)-O-(4-(5,6,7,8-tetrahydro-1,8-naphthyridin-2-yl)butyl)-L-homoserine]
14 | ≤ 6.30 | 6.82 to 7.30 | > 7.30 | Cc1ncnc(C)c1C1(C(=O)N[C@@H](CCOCCCCc2ccc3c(n2)NCCC3)C(=O)O)CC1 [Compound 41, N-(1-(4,6-dimethylpyrimidin-5-yl)cyclopropane-1-carbonyl)-O-(4-(5,6,7,8-tetrahydro-1,8-naphthyridin-2-yl)butyl)-L-homoserine]
15 | ≤ 6.30 | > 7.30 | > 7.30 | Cc1ccncc1C1(C(=O)N[C@@H](CCOCCCCc2ccc3c(n2)NCCC3)C(=O)O)CC1 [Compound 16, N-(1-(4-methylpyridin-3-yl)cyclopropane-1-carbonyl)-O-(4-(5,6,7,8-tetrahydro-1,8-naphthyridin-2-yl)butyl)-L-homoserine]
16 | 6.82 to 7.30 | > 7.30 | > 7.30 | O=C(O)[C@H](CCOCCCCc1ccc2c(n1)NCCC2)NC(=O)C1(C(F)(F)F)CCOCC1 [Compound 100, O-(4-(5,6,7,8-tetrahydro-1,8-naphthyridin-2-yl)butyl)-N-(4-(trifluoromethyl)tetrahydro-2H-pyran-4-carbonyl)-L-homoserine]
17 | ≤ 6.30 | 6.82 to 7.30 | > 7.30 | O=C(Cc1ccccc1)N[C@@H](CCOCCCCc1ccc2c(n1)NCCC2)C(=O)O [Compound 81, N-(2-phenylacetyl)-O-(4-(5,6,7,8-tetrahydro-1,8-naphthyridin-2-yl)butyl)-L-homoserine]
18 | 6.30 to 6.60 | 6.30 to 6.60 | 6.82 to 7.30 | O=C(N[C@@H](CCOCCCCc1ccc2c(n1)NCCC2)C(=O)O)c1ccn(-c2ccccc2)n1 [Compound 97, N-(1-phenyl-1H-pyrazole-3-carbonyl)-O-(4-(5,6,7,8-tetrahydro-1,8-naphthyridin-2-yl)butyl)-L-homoserine]
19 | ≤ 6.30 | 6.82 to 7.30 | > 7.30 | Cn1nccc1C1(C(=O)N[C@@H](CCOCCCCc2ccc3c(n2)NCCC3)C(=O)O)CC1 [Compound 54, N-(1-(1-methyl-1H-pyrazol-5-yl)cyclopropane-1-carbonyl)-O-(4-(5,6,7,8-tetrahydro-1,8-naphthyridin-2-yl)butyl)-L-homoserine]
20 | < 6.30 | > 7.30 | > 7.30 | O=C(O)[C@H](CCOCCCCc1ccc2c(n1)NCCC2)NC(=O)C1(c2cccc(Cl)c2)CCOCC1 [Compound 89, N-(4-(3-chlorophenyl)tetrahydro-2H-pyran-4-carbonyl)-O-(4-(5,6,7,8-tetrahydro-1,8-naphthyridin-2-yl)butyl)-L-homoserine]
